In ChEMBL document CHEMBL5512601, “Small-molecule inhibitors targeting apoptosis signal-regulated kinase 1” (Eur J Med Chem, 2023):
Blank lines part the entries; values can stand above or below the molecule they belong to.

Experiments:
[1] = Oral bioavailability in Sprague-Dawley rat at 1 mg/kg by LC-MS/MS analysis; assay type: ADME, organism-based; conditions: in vivo
[2] = Apparent permeability of compound across apical to basolateral side in human Caco2 cells; assay type: ADME, cell-based; conditions: Caco-2
[3] = Efflux ratio of apparent permeability across basolateral to apical side over apical to basolateral side in human Caco2 cells by LC-MS/MS analysis; assay type: ADME, cell-based; conditions: Caco-2
[4] = Half life in Sprague-Dawley rat at 1 mg/kg, iv by LC-MS/MS analysis; assay type: ADME, organism-based; conditions: in vivo
[5] = target: T1, Mitogen-activated protein kinase kinase kinase 5 (Homo sapiens, UniProt Q99683); test: Inhibition of ASK1 in HEK293 cells; assay type: cell-based
T1 sequence (Q99683 whole entry): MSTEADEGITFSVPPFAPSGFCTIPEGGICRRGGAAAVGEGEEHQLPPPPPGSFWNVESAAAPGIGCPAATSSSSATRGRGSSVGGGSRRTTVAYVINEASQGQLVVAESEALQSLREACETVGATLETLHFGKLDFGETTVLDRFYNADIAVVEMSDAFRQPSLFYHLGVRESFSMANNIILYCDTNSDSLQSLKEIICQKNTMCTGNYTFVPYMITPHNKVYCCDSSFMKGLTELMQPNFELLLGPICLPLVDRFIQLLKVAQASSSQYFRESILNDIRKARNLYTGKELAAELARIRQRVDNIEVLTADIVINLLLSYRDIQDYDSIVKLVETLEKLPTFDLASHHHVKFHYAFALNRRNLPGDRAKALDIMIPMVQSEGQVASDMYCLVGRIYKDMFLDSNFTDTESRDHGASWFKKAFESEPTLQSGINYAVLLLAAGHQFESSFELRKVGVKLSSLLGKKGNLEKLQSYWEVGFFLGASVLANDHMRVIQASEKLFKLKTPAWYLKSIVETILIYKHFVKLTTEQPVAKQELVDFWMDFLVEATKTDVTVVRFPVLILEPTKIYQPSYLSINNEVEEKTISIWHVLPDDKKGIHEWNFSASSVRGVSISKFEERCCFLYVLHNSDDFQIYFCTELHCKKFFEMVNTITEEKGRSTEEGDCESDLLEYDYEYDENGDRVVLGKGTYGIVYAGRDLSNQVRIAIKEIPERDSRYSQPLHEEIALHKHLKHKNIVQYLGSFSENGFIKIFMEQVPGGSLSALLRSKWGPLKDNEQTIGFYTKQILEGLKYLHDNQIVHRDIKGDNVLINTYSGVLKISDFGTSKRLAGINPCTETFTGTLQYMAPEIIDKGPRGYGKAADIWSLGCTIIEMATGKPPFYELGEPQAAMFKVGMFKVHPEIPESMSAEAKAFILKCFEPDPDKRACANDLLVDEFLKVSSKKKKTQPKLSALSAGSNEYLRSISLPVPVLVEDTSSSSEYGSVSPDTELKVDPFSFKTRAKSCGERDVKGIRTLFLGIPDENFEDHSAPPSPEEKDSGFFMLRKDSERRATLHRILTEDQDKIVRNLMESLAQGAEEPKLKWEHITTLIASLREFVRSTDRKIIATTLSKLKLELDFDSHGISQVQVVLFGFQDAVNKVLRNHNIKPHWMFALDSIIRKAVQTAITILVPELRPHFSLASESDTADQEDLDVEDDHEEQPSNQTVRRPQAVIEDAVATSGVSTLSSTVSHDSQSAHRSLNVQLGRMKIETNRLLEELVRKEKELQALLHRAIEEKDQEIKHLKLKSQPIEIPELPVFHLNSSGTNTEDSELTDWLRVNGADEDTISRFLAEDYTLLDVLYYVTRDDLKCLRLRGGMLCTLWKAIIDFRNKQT

[6] = target: T1, Mitogen-activated protein kinase kinase kinase 5; test: Inhibition of ASK1 (unknown origin) incubated for 2 hrs
[7] = Unbound brain-to-plasma concentration ratio in rat at 1 mg/kg, iv by LC-MS/MS analysis; assay type: ADME, organism-based; conditions: brain and plasma, read-out: K(p,uu,brain)
[8] = target: T1, Mitogen-activated protein kinase kinase kinase 5; test: Inhibition of ASK1 phosphorylation in HEK293T cells incubated for 1 hr; assay type: cell-based
Rattus norvegicus [9] = species on record: Rattus norvegicus; test: Antifibrotic activity CDHFD-NaNO2 rat model; assay type: functional
Rattus norvegicus [10] = species on record: Rattus norvegicus; test: Antifibrotic activity CDHFD-NaNO2 rat model assessed as effect on hydroxyproline level; assay type: functional
[11] = target: T1, Mitogen-activated protein kinase kinase kinase 5; test: Inhibition of full length GST-tagged recombinant human ASK1 using MBP as substrate incubated for 20 mins
[12] = target: T1, Mitogen-activated protein kinase kinase kinase 5; test: Inhibition of full length GST-tagged recombinant human ASK1 using MBP as substrate incubated for 20 mins by cell based assay

bioavailability [1]: 50% | Papp A→B [2]: 0.26 ×10⁻⁶ cm/s | efflux ratio [3]: 15.4 | half-life [4]: 1.2 h | EC50 [5]: 18 nM
SMILES: Cc1ccc(C(=O)Nc2cccc(-c3nncn3C(C)C)n2)cc1-n1cnc(C2CC2)c1

IC50 [6]: ≤ 100 nM | Kp uu [7]: ≥ 0.1 | IC50 [8]: ≤ 100 nM
SMILES: C[C@H]1CCCOc2ncc(-c3ccncc3)cc2C(=O)Nc2cccc(n2)-c2nncn21

bioavailability [1]: 75%
SMILES: Cc1cc(F)c(C(=O)Nc2cccc(-c3nncn3C(C)C)n2)cc1-n1cnc(C2CC2)c1 [SELONSERTIB]
Activity (Rattus norvegicus [9]): 28% | Activity (Rattus norvegicus [10]): 6%

IC50 [11]: > 1000 nM | IC50 [12]: > 100 nM
SMILES: Cc1cc(F)c(C(=O)Nc2cccc(-c3nnc4n3CCCC4)n2)cc1-n1nnc(C2CC2)n1
